Assay: Example 1: kidney biomarkers (urea nitrogen, creatinine, GFR) in short bowel syndrome patients, every four weeks for 24 weeks; also sorted by >5% change from baseline
Type: in vivo, Human
Parameters: CREATININE (RATE BLANKED) Change from Baseline Median / GFR Median / GFR Change from Baseline Median / UREA NITROGEN Median / UREA NITROGEN Change from Baseline Median: unit not given here
Conditions: for CREATININE (RATE BLANKED) change from baseline <−5%, number of patients / CREATININE (RATE BLANKED) change from baseline <−5%, percent of patients / CREATININE (RATE BLANKED) change from baseline >5%, number of patients / CREATININE (RATE BLANKED) change from baseline >5%, percent of patients / CREATININE (RATE BLANKED) change from baseline −5% <= and <=5%, number of patients / CREATININE (RATE BLANKED) change from baseline −5% <= and <=5%, percent of patients / GFR change from baseline <−5%, number of patients / GFR change from baseline <−5%, percent of patients / GFR change from baseline >5%, number of patients / GFR change from baseline >5%, percent of patients / GFR change from baseline −5% <= and <=5%, number of patients / GFR change from baseline −5% <= and <=5%, percent of patients / UREA NITROGEN change from baseline <−5%, number of patients / UREA NITROGEN change from baseline <−5%, percent of patients / UREA NITROGEN change from baseline >5%, number of patients / UREA NITROGEN change from baseline >5%, percent of patients / UREA NITROGEN change from baseline −5% <= and <=5%, number of patients / UREA NITROGEN change from baseline −5% <= and <=5%, percent of patients: 0.1 mg/kg/day
Experimental: Human patients with short bowel syndrome were divided into three groups: a control group (16 total individuals) to receive placebo, an experimental group (35 total individuals) to receive teduglutide at 0.05 mg/kg/day throughout the study, and an experimental group (32 total individuals) to receive teduglutide at 0.1 mg/kg/day throughout the study. Patients were treated by subcutaneous injection of placebo or the appropriate dose of teduglutide. As individuals with short bowel syndrome are likely to experience associated liver and kidney disease, known biomarkers of liver and kidney function were monitored every four weeks, for 24 weeks. The liver biomarkers tested included total bilirubin, ALT and AST and ALP. The kidney biomarkers tested included urea nitrogen, creatinine and GFR. Before administration of placebo or teduglutide, diagnostic biomarker levels were tested to establish a baseline for each individual.
To visualize the effect of GLP-2 on the levels of the diagnostic biomarkers, the average change from baseline was calculated for the placebo and teduglutide treated groups for each visit after a baseline was established. The average change from baseline of each group is depicted in FIGS. 1-7. The numerical figures for each diagnostic biomarker at each time point are depicted in Table 1.
The raw data for this sorting is reproduced in Table 2 below.

SMILES: CC[C@H](C)[C@H](NC(=O)[C@H](Cc1ccccc1)NC(=O)[C@H](CC(=O)O)NC(=O)[C@H](CCCNC(=N)N)NC(=O)[C@H](C)NC(=O)[C@H](C)NC(=O)[C@H](CC(C)C)NC(=O)[C@H](CC(N)=O)NC(=O)[C@H](CC(=O)O)NC(=O)[C@H](CC(C)C)NC(=O)[C@@H](NC(=O)[C@@H](NC(=O)[C@H](CC(N)=O)NC(=O)[C@H](CCSC)NC(=O)[C@H](CCC(=O)O)NC(=O)[C@H](CC(=O)O)NC(=O)[C@H](CO)NC(=O)[C@H](Cc1ccccc1)NC(=O)[C@H](CO)NC(=O)CNC(=O)[C@H](CC(=O)O)NC(=O)CNC(=O)[C@@H](N)Cc1c[nH]cn1)[C@@H](C)O)[C@@H](C)CC)C(=O)N[C@@H](CC(N)=O)C(=O)N[C@@H](Cc1c[nH]c2ccccc12)C(=O)N[C@@H](CC(C)C)C(=O)N[C@H](C(=O)N[C@@H](CCC(N)=O)C(=O)N[C@H](C(=O)N[C@@H](CCCCN)C(=O)N[C@H](C(=O)N[C@H](C(=O)N[C@@H](CC(=O)O)C(=O)O)[C@@H](C)O)[C@@H](C)CC)[C@@H](C)O)[C@@H](C)CC [teduglutide]
- CREATININE (RATE BLANKED) Change from Baseline Median (0.10 mg/kg/day, DW4): −0.5
- CREATININE (RATE BLANKED) Median (0.10 mg/kg/day, DW4): 83 µmol/L
- GFR Change from Baseline Median (0.10 mg/kg/day, DW4): 3.1
- UREA NITROGEN Change from Baseline Median (0.10 mg/kg/day, DW4): 0.2
- UREA NITROGEN Median (0.10 mg/kg/day, DW4): 6.3
- CREATININE (RATE BLANKED) Change from Baseline Median (0.10 mg/kg/day, DW8): 0.0
- CREATININE (RATE BLANKED) Median (0.10 mg/kg/day, DW8): 86 µmol/L
- GFR Change from Baseline Median (0.10 mg/kg/day, DW8): 0.2
- UREA NITROGEN Change from Baseline Median (0.10 mg/kg/day, DW8): 0.1
- UREA NITROGEN Median (0.10 mg/kg/day, DW8): 6.4
- CREATININE (RATE BLANKED) Change from Baseline Median (0.10 mg/kg/day, DW12): 6.5
- GFR Change from Baseline Median (0.10 mg/kg/day, DW12): −0.5
- UREA NITROGEN Change from Baseline Median (0.10 mg/kg/day, DW12): 0.0
- UREA NITROGEN Median (0.10 mg/kg/day, DW12): 5.9
- CREATININE (RATE BLANKED) Change from Baseline Median (0.10 mg/kg/day, DW16): 0.0
- GFR Change from Baseline Median (0.10 mg/kg/day, DW16): 1.1
- UREA NITROGEN Change from Baseline Median (0.10 mg/kg/day, DW16): 0.0
- UREA NITROGEN Median (0.10 mg/kg/day, DW16): 6.1
- CREATININE (RATE BLANKED) Change from Baseline Median (0.10 mg/kg/day, DW20): 0.0
- CREATININE (RATE BLANKED) Median (0.10 mg/kg/day, DW20): 88 µmol/L
- GFR Change from Baseline Median (0.10 mg/kg/day, DW20): 1.5
- UREA NITROGEN Change from Baseline Mean (SD) (0.10 mg/kg/day, DW20): −0.0 (1.60)
- UREA NITROGEN Change from Baseline Median (0.10 mg/kg/day, DW20): −0.1
- UREA NITROGEN Median (0.10 mg/kg/day, DW20): 6.0
- CREATININE (RATE BLANKED) Change from Baseline Median (0.10 mg/kg/day, DW 24): 0.0
- CREATININE (RATE BLANKED) Median (0.10 mg/kg/day, DW 24): 81 µmol/L
- GFR Change from Baseline Median (0.10 mg/kg/day, DW 24): 2.3
- UREA NITROGEN Change from Baseline Median (0.10 mg/kg/day, DW 24): 0.3
- UREA NITROGEN Median (0.10 mg/kg/day, DW 24): 5.9
- CREATININE (RATE BLANKED) change from baseline <−5%, number of patients (week 4): 12
- CREATININE (RATE BLANKED) change from baseline <−5%, percent of patients (week 4): (37.5%)
- CREATININE (RATE BLANKED) change from baseline >5%, number of patients (week 4): 7
- CREATININE (RATE BLANKED) change from baseline >5%, percent of patients (week 4): (21.9%)
- CREATININE (RATE BLANKED) change from baseline −5% <= and <=5%, number of patients (week 4): 13
- CREATININE (RATE BLANKED) change from baseline −5% <= and <=5%, percent of patients (week 4): (40.6%)
- GFR change from baseline <−5%, number of patients (week 4): 7
- GFR change from baseline <−5%, percent of patients (week 4): (21.9%)
- GFR change from baseline >5%, number of patients (week 4): 14
- GFR change from baseline >5%, percent of patients (week 4): (43.8%)
- GFR change from baseline −5% <= and <=5%, number of patients (week 4): 11
- GFR change from baseline −5% <= and <=5%, percent of patients (week 4): (34.4%)
- UREA NITROGEN change from baseline <−5%, number of patients (week 4): 10
- UREA NITROGEN change from baseline <−5%, percent of patients (week 4): (31.3%)
- UREA NITROGEN change from baseline >5%, number of patients (week 4): 15
- UREA NITROGEN change from baseline >5%, percent of patients (week 4): (46.9%)
- UREA NITROGEN change from baseline −5% <= and <=5%, number of patients (week 4): 7
- UREA NITROGEN change from baseline −5% <= and <=5%, percent of patients (week 4): (21.9%)
- CREATININE (RATE BLANKED) change from baseline <−5%, number of patients (week 8): 8
- CREATININE (RATE BLANKED) change from baseline <−5%, percent of patients (week 8): (25.0%)
- CREATININE (RATE BLANKED) change from baseline >5%, number of patients (week 8): 13
- CREATININE (RATE BLANKED) change from baseline >5%, percent of patients (week 8): (40.6%)
- CREATININE (RATE BLANKED) change from baseline −5% <= and <=5%, number of patients (week 8): 10
- CREATININE (RATE BLANKED) change from baseline −5% <= and <=5%, percent of patients (week 8): (31.3%)
- GFR change from baseline <−5%, number of patients (week 8): 9
- GFR change from baseline <−5%, percent of patients (week 8): (28.1%)
- GFR change from baseline >5%, number of patients (week 8): 9
- GFR change from baseline >5%, percent of patients (week 8): (28.1%)
- GFR change from baseline −5% <= and <=5%, number of patients (week 8): 13
- GFR change from baseline −5% <= and <=5%, percent of patients (week 8): (40.6%)
- UREA NITROGEN change from baseline <−5%, number of patients (week 8): 9
- UREA NITROGEN change from baseline <−5%, percent of patients (week 8): (28.1%)
- UREA NITROGEN change from baseline >5%, number of patients (week 8): 15
- UREA NITROGEN change from baseline >5%, percent of patients (week 8): (46.9%)
- UREA NITROGEN change from baseline −5% <= and <=5%, number of patients (week 8): 7
- UREA NITROGEN change from baseline −5% <= and <=5%, percent of patients (week 8): (21.9%)
- CREATININE (RATE BLANKED) change from baseline <−5%, number of patients (week 12): 9
- CREATININE (RATE BLANKED) change from baseline <−5%, percent of patients (week 12): (28.1%)
- CREATININE (RATE BLANKED) change from baseline >5%, number of patients (week 12): 17
- CREATININE (RATE BLANKED) change from baseline >5%, percent of patients (week 12): (53.1%)

From patent US20130157954A1, “METHODS FOR TREATMENT OR PROPHYLAXIS OF KIDNEY OR LIVER DYSFUNCTION” (NPS PHARMACEUTICALS, INC., priority 2010, published 2013)
